What all share (assay): NCI tumour cell line growth inhibition, 48 h
The subject of experiment [1] is DMS 273 small cell lung.
Experiment [2] has as its system DLD-1 colon.
Experiment [3] concerns DMS 114 small cell lung.
Experiment [4] deals with XF 498 CNS.
Experiment [5] has as its system M19-MEL melanoma.
Experiment [6] has as its system LXFL 529 NSCLC.
The subject of experiment [7] is RXF-631 renal.
The subject of experiment [8] is HOP-18 NSCLC.
The test system of experiment [9] is SNB-78 CNS.

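Where inhibition never reached the appropriate level, the endpoint shown equals the highest concentration tested. Otherwise, values were interpolated linearly from a five-concentration, 48-hour dose response in 96-well plates. At the TGI there is no net growth.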

As for `CN1CCc2ccccc2C(C(=O)c2ccc3c(c2)OCO3)C1=O` (stereo unspecified), the TGI in experiment [1], in experiment [2], in [3], in experiment [4], in experiment [5] and in experiment [6] was above 100 µM each time. Also, the TGI in experiment [7] and in experiment [8] was above 100 µM each time.

As to `CCCCOC/N=C(/N)NC#N`, the TGI in experiment [1], in [2], in experiment [3], in [4], in experiment [6] and in experiment [9] was above 100 µM in each case. The TGI in [7] and in [8] was above 100 µM each time.

On to `Cc1ccc(C(=O)Oc2ccccc2)cc1N=NN(C)C`, for which the TGI in experiment [1], in experiment [2], in [5], in experiment [6] and in [9] was above 100 µM in each case.

For `CCCNCCCCC(NC(C)=O)C(=O)NCc1ccccc1` (stereo unspecified), the TGI in experiment [1], in [2], in experiment [3], in [4], in [5] and in [6] was above 100 µM throughout. Besides, the TGI in experiment [9] and in [7] was above 100 µM each time.

With `COc1cc([C@@H]2c3cc4c(cc3[C@@H](NCc3cccc(C#N)c3)C3COC(=O)[C@@H]32)OCO4)cc(OC)c1O` (stereo partly specified), the TGI in [1] is 5.89 µM; in [2], 12.7 µM; in [3], 9.19 µM; in experiment [5] it was 50.3 µM; in experiment [6], above 100 µM; in experiment [7], 4.64 µM. This compound also came in with a TGI in [8] above 100 µM.

As to `CCCc1cc(OC(=O)c2c(O)cc(OC)cc2CCC)cc(O)c1C(=O)O`, the TGI in experiment [1] is 95.7 µM; in experiment [2], above 100 µM; in experiment [3] it was 56 µM; in experiment [4], 74.4 µM; in [5], above 100 µM; in experiment [6], 62.9 µM. Besides, the TGI in [9] is 64.1 µM; in experiment [7], 63.8 µM.

Regarding `Cc1ccc(-c2cc(-c3ccccc3)c(C#N)c(=O)[nH]2)cc1`, the TGI in [1], in [2], in experiment [3], in experiment [5], in [6] and in experiment [9] was above 100 µM in each case. Besides, the TGI in experiment [7] and in experiment [8] was above 100 µM in each case.

Consider `O=c1oc2c3ccc4ccccc4c3n(CCN3CCCCC3)c2c2ccccc12`, for which the TGI in experiment [1] is above 100 µM; in [2] it was above 100 µM; in [3], above 100 µM; in experiment [4], 42.9 µM; in [5] it was above 100 µM; in [6], above 100 µM. Also, the TGI is above 31.6 µM in experiment [9], above 100 µM in experiment [7] and above 100 µM in [8].

Consider `CCCCCCCCC(O)c1ccc(/C=C\C(O)CCCC(=O)O)s1` (stereo unspecified), for which the TGI in experiment [1], in experiment [2], in experiment [3], in [4], in [5] and in experiment [6] was above 100 µM each time. The TGI in experiment [9] and in experiment [8] was above 100 µM throughout.

In the case of `C=C1C2=C(CCCC2)C(=O)OC12CCCCC2`, the TGI in [1], in experiment [2], in experiment [3], in [4], in [5] and in [6] was above 100 µM throughout. Further, the TGI in experiment [7] and in experiment [8] was above 100 µM each time.

For `CCOC(=O)C1=C(OC(OCC)C(CC)[Se]c2ccccc2)CCC1` (stereo unspecified), the TGI in experiment [1] was determined as 29.2 µM; in experiment [2] it was 45.4 µM; in [3], 15.6 µM; in [4], 46.8 µM; in [5], 30.8 µM; in experiment [6], 77 µM. In addition, the TGI amounted to 97.4 µM in experiment [9], 32.9 µM in experiment [7] and 69.5 µM in experiment [8].

On to `O=[N+]([O-])c1cccc(Nc2nc(Cl)nc(Cl)n2)c1`, for which the TGI in experiment [1], in [2], in experiment [4], in experiment [5], in experiment [6] and in experiment [9] was above 100 µM in each case. The compound also gave a TGI in experiment [7] above 100 µM.

On to `COc1ccc2[nH]c3c(c2c1)[C@H]1CCC(C(C)(C)C)C[C@H]1[C@H]1C(=O)N(c2ccccc2)C(=O)[C@@H]31` (stereo partly specified), for which the TGI is above 100 µM in experiment [1]; above 96.2 µM in experiment [2]; above 76.7 µM in experiment [3]; 31 µM in experiment [4]; above 94.2 µM in experiment [5]; above 100 µM in experiment [6]. For the same compound, the TGI in [7] was found to be 57.5 µM; in experiment [8] it was 99.6 µM.
